The source of these data is paper PMC2653189 (PLoS ONE, 2009).

What is called IC50 is the midpoint of a concentration-inhibition curve.

The test system of experiment [1] is IL-6-mediated Stat3 nuclear translocation (GFP-Stat3α). Kind of experiment: HTFM nuclear translocation assay in MEF/GFP-Stat3α cells. Type of experiment: cell-based, murine. The settings on record: Mus musculus, compound 1 hour, then IL-6 200 ng/ml and IL-6sR 250 ng/ml 30 min, read-out: HTFM IC50, inhibition of IL-6-mediated Stat3 nuclear translocation. Here is the method: Confocal and high-throughput fluorescence microscopy (HTFM) of MEF/GFP-Stat3α cells were performed as described. Briefly, for confocal fluorescence microscopy, cells were grown in 6-well plates containing a cover slip. For HTFM, cells were seeded into 96-well CC3 plates at a density of 5,000 cells/well using an automated plating system. Cells were cultured under standard conditions until 85–90% confluent. Cells were pre-treated with compound for 1 hour at 37°C then stimulated with IL-6 (200 ng/ml) and IL-6sR (250 ng/ml) for 30 minutes to provide optimal Stat3 activation and nuclear translocation in these cells, as described. Cells were fixed with 4% formaldehyde in PEM Buffer (80 mM Potassium PIPES, pH 6.8, 5 mM EGTA pH 7.0, 2 mM MgCl2) for 30 minutes at 4°C, quenched in 1 mg/ml of NaBH4 (Sigma) in PEM buffer and counterstained for 1 min in 4,6-diamidino-2-phenylindole (DAPI; Sigma; 1 mg/ml) in PEM buffer. Cover slips were examined by confocal fluorescent microscopy. Plates were analyzed by automated HTFM using the Cell Lab IC Image Cytometer (IC100) platform and Cytoshop Version 2.1 analysis software (Beckman Coulter). Nuclear translocation is quantified by using the fraction localized in the nucleus (FLIN) measurement. FLIN values were normalized by subtracting the FLIN for unstimulated cells then dividing this difference by the maximum difference (delta, Δ) in FLIN (FLIN in cells stimulated with IL-6/sIL-6R in the absence of compound minus FLIN of unstimulated cells). This ratio was multiplied by 100 to obtain the percentage of maximum difference in FLIN and was plotted, where indicated, as a function of the log compound concentration. The best-fitting curve and IC50 value were determined using 4-Parameter Logistic Model/Dose Response/XLfit 4.2, IDBS software.
Figure 4 Inhibition of cytoplasmic-to-nuclear translocation of Stat3 assessed by confocal and high-throughput fluorescence microscopy (HTFM). […] Coverslips were examined by confocal fluorescent microscopy using filters to detect GFP (column one), DAPI (column two) or both (merge; column three). In panel B, MEF-GFP-Stat3 cells were grown in 96-well plates with optical glass bottoms and pre-treated with the indicated compound at the indicated concentrations in quadruplicate for 1 hour then stimulated with IL-6 (200 ng/ml) and IL-6sR (250 ng/ml) for 30 minutes. Cells were fixed and the plates were examined by high-throughput microscopy to determine the fluorescence intensity in the nucleus (FLIN). The percent of maximum change (delta, Δ) in FLIN was calculated as described in the Methods and plotted as a function of the log of the compound concentration. […] Best-fit curves were determined using 4-Parameter Logistic Model/Dose Response/XLfit 4.2, IDBS software and were used to calculate the IC50 values (Table 2).

Experiment [2] concerns breast cancer cell lines tested. Kind of experiment: Apoptosis assay, all breast cancer cell lines tested. The class given is cell-based, Human. The settings on record: any of the breast cancer cell lines tested; data not shown. The procedure:
Human breast carcinoma cell lines MDA-MB-468, MDA-MB-231, MBA-MD-435 and MCF7 were kindly provided by Dr. Powel H. Brown (Breast Cancer Center, Baylor College of Medicine). Breast cancer cell line, MDA-MB-453 was kindly provided by Dr. Shou Jiang (Breast Cancer Center, Baylor College of Medicine). All cell lines were grown in DMEM medium supplemented with 10% fetal bovine serum (FBS), 25,000 units penicillin G, 25,000 µg streptomycin, and 131.4 mg L-Glutamine and cultured in the incubator under the condition of 95% air, 5% CO2 at 37°C [33]. Cells were seeded at 2,500 cells/cm^2 into 12-well plates. At 80% confluency, cells were washed with PBS and supplemented with fresh medium containing compound or the topoisomerase I-inhibitor, camptothecin, at 0, 0.1, 0.3, 1, 3, 10, 30, 100, 300 µM. At 24 hours, treatment was terminated by removing the medium from each well. Cells were lysed with cell lysis buffer (600 µl for 30 minutes at 25°C). […] The percent maximum nucleosome level was calculated by dividing the nucleosome level by the maximum nucleosome level achieved in the assay and multiplying by 100. This value was plotted as a function of the log compound concentration and the best-fitting curve and EC50 value determined using 4-Parameter Logistic Model/Dose Response/XLfit 4.2, IDBS software.

In experiment [3] the test system is IFN-γ-mediated Stat1 phosphorylation. Kind of experiment: Immunoblot of IFN-γ-mediated Stat1 phosphorylation in HepG2 cells. The class given is cell-based, human. The settings on record: compound 300 µM 1 hour, IFN-γ 30 ng/ml 30 min. Here is the method:
(§1) The human hepatocellular carcinoma cell line (HepG2) was grown in 6-well plates under standard conditions. Cells were pretreated with compounds (0, 1, 3, 10, 30, 100 and 300 µM) for 1 hour then stimulated under optimal conditions with either interleukin-6 (IL-6; 30 ng/ml for 30 min) to activate Stat3 or interferon gamma (IFN-γ; 30 ng/ml for 30 min) to activate Stat1 [28]. Cultures were then harvested and proteins extracted using high-salt buffer, as described. Briefly, extracts were mixed with 2× sodium dodecyl sulfate (SDS) sample buffer (125 mM Tris-HCL pH 6.8; 4% SDS; 20% glycerol; 10% 2-mercaptoethanol) at a 1∶1 ratio and heated for 5 minutes at 100°C. Proteins (20 µg) were separated by 7.5% SDS-PAGE and transferred to polyvinylidene fluoride (PVDF) membrane (Millipore, Waltham, MA) and immunoblotted. Prestained molecular weight markers (BioRad; Hercules, CA) were included in each gel. Membranes were probed serially with antibody against Stat1 pY701 or Stat3 pY705 followed by antibody against Stat1 or Stat3 (Transduction labs, Lexington, KY) then antibody against β–actin (Abcam, Cambridge, MA). Membranes were stripped between antibody probing using Restore™ Western Blot Stripping Buffer (Thermo Fisher Scientific Inc., Waltham, MA) per the manufacturer's instructions. Horseradish peroxidase-conjugated goat-anti-mouse IgG was used as the secondary antibody (Invitrogen Carlsbad, CA) and the membranes were developed with enhanced chemiluminescence (ECL) detection system (Amersham Life Sciences Inc.; Arlington Heights, IL.).
Figure 2 Effect of compounds on ligand-mediated Stat3 and Stat1 phosphorylation. […] Cells were then stimulated with IL-6 (30 ng/ml) for 30 min. Protein extracts of cells were separated by SDS-PAGE, blotted and developed serially with antibodies to pStat3, total Stat3 and β-actin. Blots were stripped between each antibody probing. Band intensities were quantified by densitometry. The value of each pStat3 band was divided by its corresponding total Stat3 band intensity; the results were normalized to the DMSO-treated control value. This value was plotted as a function of the log compound concentration. The best-fitting curve was determined using 4-Parameter Logistic Model/Dose Response/XLfit 4.2, IDBS software and was used to calculate the IC50 value (Table 1). Each panel is representative of 3 or more experiments. In panel G, HepG2 cells were pretreated with DMSO alone or DMSO containing each of the compounds at a concentration of 300 µM for 60 min. Cells were then stimulated with IFN-γ (30 ng/ml) for 30 min. Protein extracts of cells were separated by SDS-PAGE and immunoblotted serially with antibodies to pStat1, total Stat1 and β-actin. Blots were stripped between each immunoblotting. The results shown are representative of 2 or more experiments.
(In general: A western blot detects proteins with antibodies after separation by electrophoresis.)

Experiment [4] relates to IL-6-mediated phosphorylation of Stat3. Kind of experiment: Immunoblot of IL-6-mediated Stat3 phosphorylation in HepG2 cells. The class given is cell-based. The settings on record: Homo sapiens, compound 60 min, then IL-6 30 ng/ml 30 min, read-out: pStat3 IC50, inhibition of IL-6-mediated Stat3 phosphorylation. Here is the method: as §1
Figure 2 Effect of compounds on ligand-mediated Stat3 and Stat1 phosphorylation. […] Cells were then stimulated with IL-6 (30 ng/ml) for 30 min. Protein extracts of cells were separated by SDS-PAGE, blotted and developed serially with antibodies to pStat3, total Stat3 and β-actin. Blots were stripped between each antibody probing. Band intensities were quantified by densitometry. […] The best-fitting curve was determined using 4-Parameter Logistic Model/Dose Response/XLfit 4.2, IDBS software and was used to calculate the IC50 value (Table 1). […]

For experiment [5], the target named is T1, Stat3 (Homo sapiens, UniProt P40763). Kind of experiment: Stat3/pY-peptide binding assay (SPR, BIAcore). The settings on record: recombinant Stat3 500 nM; immobilized EGFR Y1068 phosphododecapeptide; 25°C; read-out: SPR IC50, inhibition of Stat3 binding to pY peptide ligand. The procedure: A control (Stat3 with DMSO but without compound) was run at the beginning and the end of each cycle (40 sample injections) to ensure that the integrity of the sensor chip was maintained throughout the cycle run. The average of the two controls was normalized to 100% and used to evaluate the effect of each compound on Stat3 binding. Responses were normalized by dividing the value at 2 min by the response obtained in the absence of compounds at 2 min and multiplying by 100.
T1 sequence (P40763 whole entry, species assumed): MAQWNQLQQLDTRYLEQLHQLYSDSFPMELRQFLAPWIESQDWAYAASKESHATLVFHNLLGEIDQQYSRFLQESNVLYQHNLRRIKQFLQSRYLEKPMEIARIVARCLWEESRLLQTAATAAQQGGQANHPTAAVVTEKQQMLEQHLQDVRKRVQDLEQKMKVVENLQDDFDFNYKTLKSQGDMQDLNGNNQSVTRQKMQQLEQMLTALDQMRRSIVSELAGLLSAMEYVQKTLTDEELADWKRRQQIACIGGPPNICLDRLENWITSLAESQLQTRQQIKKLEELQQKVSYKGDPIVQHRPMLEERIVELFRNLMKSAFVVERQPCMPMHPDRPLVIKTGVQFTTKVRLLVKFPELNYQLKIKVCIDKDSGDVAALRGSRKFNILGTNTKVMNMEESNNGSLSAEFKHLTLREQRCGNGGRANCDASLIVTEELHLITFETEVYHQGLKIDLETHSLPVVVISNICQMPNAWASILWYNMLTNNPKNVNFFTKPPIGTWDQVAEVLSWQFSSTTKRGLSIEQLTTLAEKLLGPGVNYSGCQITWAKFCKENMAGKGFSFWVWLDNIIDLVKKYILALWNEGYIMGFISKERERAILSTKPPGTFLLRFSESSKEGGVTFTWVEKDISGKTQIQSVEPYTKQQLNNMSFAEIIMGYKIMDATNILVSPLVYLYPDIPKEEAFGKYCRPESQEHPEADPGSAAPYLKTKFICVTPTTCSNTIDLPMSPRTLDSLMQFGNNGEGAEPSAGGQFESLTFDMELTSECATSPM
Background: SPR reads the build-up and loss of mass on a sensor chip optically.

Another experiment relates to MDA-MB-231 xenografts. Details: method as in PMID 17463090. The settings on record: 5 mg/kg every 2–3 days; cited from earlier work.
Experiment [6] addresses T1, Stat3. Details: method as in PMID 16220982. The settings on record: fluorescence polarization; read-out: IC50 inhibition of Stat3 binding to pY-peptide; cited from earlier work.

Read-outs that look alike come from different tables or passages of the source.

For `CCOc1cc(C=C2C(=O)c3ccccc3C2=O)cc(Cl)c1OCc1cccc(C(=O)O)c1` [Cpd3-2, 3-({2-chloro-4-[(1,3-dioxo-1,3-dihydro-2H-inden-2-ylidene)methyl]-6-ethoxyphenoxy}methyl)benzoic acid], the IC50 in experiment [1] worked out at 150 µM; in experiment [4], 144 µM; on Stat3 [5], 256 µM. Moreover, the “Apoptosis induction (in words)” value in experiment [2] was “neither Cpd3-2 nor Cpd3-7 induced apoptosis”. The “Block of IFN-γ-stimulated Stat1 phosphorylation” value in experiment [3] is “did not”.

Consider `COC(=O)Cc1c(C)c2ccc(OCc3ccc(C(=O)OC)cc3)c(C)c2oc1=O` [Cpd3-7, methyl 4-({[3-(2-methoxy-2-oxoethyl)-4,8-dimethyl-2-oxo-2H-chromen-7-yl]oxy}methyl)benzoate], for which the “Apoptosis induction (in words)” value in experiment [2] is given as “neither Cpd3-2 nor Cpd3-7 induced apoptosis”. For the same compound, the “Block of IFN-γ-stimulated Stat1 phosphorylation” value in experiment [3] is “did not”.

For the compound `Cc1ccc(S(=O)(=O)OCC(=O)Nc2ccc(C(=O)O)c(O)c2)cc1` [S3I-201], the Xenograft growth result in the experiment with MDA-MB-231 xenografts was “inhibited growth”.

With “hydrocinnamoyl-Tyr(PO3H2)-Leu-cis-3,4-methanoPro-Gln-NHB”, the 50% inhibitory concentration (IC50) on Stat3 [6] is 125 nM.
